Measured values reported in US9217016B2, “Hyaluronic acid-binding synthetic peptidoglycans, preparation, and methods of use” (SYMIC IP, LLC, priority 2011, dated 2015).
One block for each substance: values may come before it. Ends that are not written are not given here.

Tests used:
[1] = tested on: bovine chondrocytes in collagen scaffolds; assay: In vitro inflammation model: collagen breakdown (Sircol assay); type: cell-based; conditions: cumulative over eight-day culture, with and without 20 ng/mL IL-1β, versus scaffolds with CS
Experimental: (§1) Collagen scaffolds seeded with chondrocytes were stimulated with IL-1β and assessed for degradation products.
(§2) Primary chondrocytes were harvested from three-month-old bovine knee joints obtained from an abattoir within 24 hours of slaughter (Dutch Valley Veal). Cartilage slices, 150-200 μm thick, were shaved from the lateral femoral condyle and washed three times in serum-free DMEM/F-12 medium (50 μg/mL ascorbic acid 2-phosphate, 100 μg/mL sodium pyruvate, 0.1% bovine serum albumin, 100 units/mL penicillin, 100 μg/mL streptomycin and 25 mM HEPES) prior to digestion with 3% fetal bovine serum (FBS) and 0.2% collagenase-P (Roche Pharmaceuticals) at 37° C. for six hours. Released chondrocytes were filtered through 70 μm cell strainer and centrifuged at 1000 rpm three times for five minutes each in medium listed above supplemented with 10% FBS. The cell pellet was resuspended in 10% FBS supplemented media and plated on 10 cm dishes at 10,000 cells/mL in a 37° C., 5% CO2 humidified incubator until confluent. […]
(§3) GAG degradation was monitored by measuring CS released in cell culture media using the dimethylmethylene blue (DMMB) dye assay and computed with a chondroitin-6-sulfate standard curve. Similarly, type I collagen degradation in cell culture media was monitored using the Sircol Collagen Assay using manufacturer specified protocols (Bio-Color). […]

collagen type II = assay: Real-time PCR, collagen type II expression; type: cell-based, bovine
Experimental: (§4) Following the cell culture study, constructs were stored in RNAlater solution (Ambion) at 4° C. for less than one week. Total mRNA was extracted using Nucleospin RNA II (Clontech) according to manufacturer's protocols. Extracted mRNA from all samples was quantified using Nanodrop 2000 spectrophotometer (Thermo Scientific) and reverse transcribed into cDNA using High Capacity cDNA Reverse Transcriptase Kit (Applied Biosystems). Real-time PCR was performed using Taqman Gene Expression Assays (Applied Biosystems) with the following primers: GAPDH (Bt03210913_gl), aggrecan (Bt03212186_ml) and collagen type II (Bt03251861_ml). 60 ng of cDNA template was prepared per 20 μL reaction for the two genes of interest and the endogenous gene. Real-time PCR analysis was carried out using a Taqman PCR Master Mix and 7500 Real-Time PCR System (Applied Biosystems). Data reported was normalized to GAPDH gene expression.

[2] = tested on: bovine chondrocytes in collagen scaffolds; assay: In vitro inflammation model: CS release into media (DMMB assay); type: cell-based; conditions: cumulative over eight-day culture, with and without 20 ng/mL IL-1β, versus scaffolds with CS
Experimental: as §1, §2, §3

[3] = tested on: Sprague-Dawley rat knee joints; assay: Animal model of osteoarthritis (surgical induction), microCT; type: in vivo, Sprague-Dawley rats; conditions: six and eight weeks after OA induction surgery; 10 μl of a 1 μm mAGC weekly starting at week 4
Experimental: Sprague-Dawley rats (250-300 g) were used for surgery. The patellar tendon, the anterior and posterior cruciate ligaments and the medial, lateral collateral ligaments were transected. The medial and lateral meniscuses were totally menisectomized. The knee joint capsule was repaired with an absorbable suture and the skin was closed with a 4-0 monofilament nylon. Starting at week 4, 10 μl of a 1 μm mAGC was administered weekly.
The extent of inflammation was indicated by the MMP-13 probe (FIG. 18) in Sprague-Dawley rats treated with and without peptidoglycan at four, six and eight weeks post surgery (FIG. 19). […] Injured knees 6 weeks and 8 weeks following OA induction, (FIG. 21, Panels A and D, respectively), injured knees following peptidoglycan treatment (FIG. 21, Panels B and E, respectively), and Normal knee (FIG. 21, Panel C), are shown.

aggrecan = assay: Real-time PCR, aggrecan expression; type: cell-based, bovine; conditions: chondrocytes in collagen scaffolds with versus without mAGC
Experimental: as §4

[4] = Diffusion of peptidoglycans through cartilage matrix (avidin-biotin stain); conditions: aggrecan-depleted bovine cartilage explant, 10 μM diffused through articular surface for one hour
Experimental: Cartilage explants were obtained from the load bearing region of three month old bovine knee joints. Native aggrecan was removed from harvested cartilage explants leaving a matrix consisting primarily of type II collagen and residual GAG. This was achieved by treating explants with 0.5% (w/v) trypsin in HBSS for 3 hours at 37° C. (FIG. 13). After trypsin treatment explants were washed three times in HBSS and incubated with 20% FBS to inactivate residual trypsin activity. Peptidoglycan was dissolved in distilled water at 10 μM concentration and diffused through the articular surface of cartilage explants by placing 10 μL of the solution on the surface every ten minutes for one hour at room temperature (FIG. 14). Normal cartilage and aggrecan depleted cartilage were treated with 1×PBS as positive and negative controls respectively. After diffusion, explants were washed three times with 1×PBS and stored at −20° C. until further testing. Diffusion of peptidoglycan was confirmed by staining a midsagittal section of the tissue with streptavidin-horseradish peroxidase stain. The streptavidin stain binds to the biotin labeled molecule and is depicted as a brown color (FIGS. 15 and 16).

[5] = tested on: Hyaluronidase (Type II from Sheep Testes); assay: Protection of hyaluronic acid from hyaluronidase degradation (dynamic viscosity); type: biochemical; conditions: 0.5 wt % HA, 75:1 treatment to HA molar ratio
Experimental: Dynamic viscosity values of HA solutions were determined using the AR-G2. High molecular weight HA solutions have a large viscosity due to the extensive chain entanglement caused by the long chain length. Hyaluronidase (Type II from Sheep Testes, Sigma) cleaves the HA chain, creating shorter chains with less entanglement. The shorter HA chains will have a measurably lower viscosity. HA solutions were incubated with 100 units/mL hyaluronidase. Dynamic viscosities were determined using a time sweep with constant angular frequency and oscillatory stress initially and at 2 and 4-hour timepoints. Samples (at 0.5 wt % HA) consisted of HA, HA+CS, and HA+10.5GAH−CS. The treatment values were added at a 75:1 treatment to HA molar ratio. The percent degradation was calculated for each measurement by dividing the initial viscosity from the difference of the measured viscosity minus the initial viscosity.
Viscosities of each treatment without hyaluronidase (TES Buffer replaced the hyaluronidase volume) were initially measured and served as the baseline for the percent degradation calculations. The 0 hr timepoint involved the addition of the hyaluronidase, mixing of the solution, pipetting onto the rheometer, and the beginning equilibration operation of the machine. Therefore, the 0 hr timepoint occurred approximately two minutes after the addition of hyaluronidase. […]

[6] = tested on: Matrix metalloprotease-I (MMP-I); assay: Collagen protection: degradation of collagen type I in ECM replicates by MMP-I (hydroxyproline assay); type: biochemical; conditions: CI + HA + treatment, 50 hr at 37° C.
Experimental: ECM-based constructs containing collagen alone, collagen+HA+CS, or collagen+HA+10.5GAH−CS were created in 8-well chambered slides as described previously. The final sample volume was 200 μL consisting of 0.8 mg of collagen type I. Matrix metalloprotease-I (MMP-I, R&D Systems, Minneapolis, Minn.) at a concentration of 0.133 mg/mL, was activated following the protocol detailed in the manufacturer's instructions. Briefly, MMP-1, already dissolved in manufacturer's buffer (50 mM Tris, 10 mM CaCl2, 150 mM NaCl, 0.05% Brij-35, pH 7.5), was combined with an equal volume of 25 mM APMA (Sigma) in DMSO at 37° C. for 2 hrs to activate the enzyme. Upon activation, the MMP-1 solution was diluted two fold in water and was added to the sample as a 100 μL supernatant. […] Following hydrolysis, the amount of hydroxyproline (hyp) was analyzed according to the protocol developed by Reddy, et al. (Clin Biochem, 1996, 29: 225-9). […] After the development of the chlorophore, the samples were read on a spectrophotometer at a wavelength of 550 nm. Absorbance readings were compared to those obtained from known concentrations of collagen to determine the amount of collagen remaining in each sample.
Each replicate sample was constructed with 0.8 mg of CI, and after degradation, the remaining CI amount was determined by the protocol developed by Reddy et al. and converting that to CI amount by a set of CI standards. […]

Substance: mAGC: HA binding peptidoglycan (aggrecan mimic): GAHWQFNALTVRGGGC (SEQ ID NO: 35) peptides attached to chondroitin sulfate; peptide number not stated (also: attached to chondroitin sulfate)
amount of collagen released into cell culture media [1]: significantly decreased
level of collagen type II expression (normalized to GAPDH) (collagen type II; aligned collagen scaffolds): higher in scaffolds prepared with mAGC
level of collagen type II expression (normalized to GAPDH) (collagen type II; unaligned scaffolds): higher in scaffolds prepared without mAGC
amount of CS released into cell culture media [2]: significantly decreased
cartilage by MicroCT [3]: re-growth of new cartilage
aggrecan expression (normalized to GAPDH) (aggrecan): lower aggrecan expression

Substance: mAG(II)C: Collagen type II binding peptidoglycan with peptide WYRGRLGC (SEQ ID NO: 36) (also: attached to glycosaminoglycan backbone)
depth of penetration into tissue [4]: approximately 200 um

percent degradation of HA ([5]; 0 hr timepoint (about 2 min after hyaluronidase)): almost complete degradation
percent degradation of HA ([5]; 2 hr timepoint): above 90%
Substance: chondroitin sulfate [CS]
percent degradation of CI [6]: 74.7%
